Measurements taken from US6914045B2, “Glycopeptide antibiotics” (Wyeth Holdings Corporation, priority 2001, dated 2005).
≈ marks a conversion by molar mass, not a printed value.

Legend:
[1] = tested on: Staphylococcus aureus-SMITH (GC 4543); test: acute lethal infection in mice; format: in vivo; details: acute lethal infection, female CD-1 mice, intraperitoneal challenge, intravenous 30 min. after infection, 7 day survival
How it was run: (§1)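 Mice (female CD-1, 20+/−2 gm) receive bacteria ip in broth or hog gastric mucin, then test agent iv after 30 min. Median effective dose is calculated from 7 day survival pooled across 3 tests.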

[2] = tested on: Enterococcus faecalis (GC 2246); test: acute lethal infection in mice; format: in vivo; details: female CD-1 mice, intraperitoneal challenge, intravenous 30 min. after infection, 7 day survival
How it was run: as §1

[3] = tested on: Escherichia coli; test: in vitro antibacterial evaluation, MIC by broth dilution; format: cell-based; details: 18 hours at 35° C., strain ATCC 25922
How it was run: (§2)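 Inoculum 5×10^5 CFU/mL; concentrations 64 to 0.06 μg/mL; MIC defined as lowest inhibitory level. Conducted by broth dilution under NCCLS guidelines.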

[4] = tested on: Staphylococcus sp.; test: as above; format: cell-based; details: broth dilution, 18 hours at 35° C.
How it was run: as §2

[5] = tested on: Enterococcus sp.; test: as above; format: cell-based; details: broth dilution, 18 hours at 35° C.
How it was run: as §2

[6] = tested on: Streptococcus sp.; test: as above; format: cell-based; details: broth dilution, 18 hours at 35° C.
How it was run: as §2

Compound: CCCC(CCC)C(=O)OCC1OC(OC2C(CO)OC(Oc3ccc(CC4NC(=O)C(C(C)c5ccccc5)NC(=O)CNC(=O)C(CO)NC(=O)C(C(O)C5CNC(=N)N5C5OC(CO)C(O)C(O)C5O)NC(=O)C(C(O)C5CNC(=N)N5)NC4=O)cc3)C(O)C2O)C(O)C(O)C1O (stereo not drawn) [Example 99c, Cyclo[glycyl-β-methylphenylalanyl-O-[4-O-[6-O-(2-propylpentanoyl)hexopyranosyl]-hexolpyranosyl]tyrosyl-3-(2-iminoimidazolidin-4-yl)seryl-3-(3-hexopyranosyl-2-iminoimidazolidin-4-yl)serylseryl]]
- median effective dose (ED50), Staphylococcus aureus-SMITH (GC 4543) [1]: 0.52 mg/kg
- median effective dose (ED50), Enterococcus faecalis (GC 2246) [2]: 4.3 mg/kg
- MIC Escherichia coli (ATCC 25922) [3]: 64 µg/mL (≈ 45 µM)
- MIC Coagulase Negative Staphylococcus (GC 4547) [4]: 1 µg/mL (≈ 0.703 µM)
- MIC Coagulase Negative Staphylococcus (GC 4548) [4]: 1 µg/mL (≈ 0.703 µM)
- MIC Coagulase Negative Staphylococcus (GC 4549) [4]: 1 µg/mL (≈ 0.703 µM)
- MIC Coagulase Negative Staphylococcus (GC 4551) [4]: 2 µg/mL (≈ 1.41 µM)
- MIC Coagulase Negative Staphylococcus (ID-3941) [4]: 1 µg/mL (≈ 0.703 µM)
- MIC Staphylococcus aureus (ATCC 29213) [4]: 1 µg/mL (≈ 0.703 µM)
- MIC Staphylococcus aureus (GC 1131) [4]: 2 µg/mL (≈ 1.41 µM)
- MIC Staphylococcus aureus (GC 4541) [4]: 2 µg/mL (≈ 1.41 µM)
- MIC Staphylococcus aureus (GC 4542) [4]: 1 µg/mL (≈ 0.703 µM)
- MIC Staphylococcus aureus (GC 4544) [4]: 2 µg/mL (≈ 1.41 µM)
- MIC Staphylococcus aureus (GC 4545) [4]: 1 µg/mL (≈ 0.703 µM)
- MIC Staphylococcus aureus-SMITH (GC 4543) [4]: 1 µg/mL (≈ 0.703 µM)
- MIC Staphylococcus haemolyticus (GC 4546) [4]: 1 µg/mL (≈ 0.703 µM)
- MIC Staphylococcus haemolyticus (GC 4546) ([4]; strain GC 4546): 1 µg/mL (≈ 0.703 µM)
- MIC Coagulase Negative Staphylococcus (GC 4547) ([4]; strain GC 4547): 1 µg/mL (≈ 0.703 µM)
- MIC Coagulase Negative Staphylococcus (GC 4548) ([4]; strain GC 4548): 1 µg/mL (≈ 0.703 µM)
- MIC Coagulase Negative Staphylococcus (GC 4549) ([4]; strain GC 4549): 1 µg/mL (≈ 0.703 µM)
- MIC Coagulase Negative Staphylococcus (GC 4551) ([4]; strain GC 4551): 2 µg/mL (≈ 1.41 µM)
- MIC Coagulase Negative Staphylococcus (ID-3941) ([4]; strain ID-3941): 1 µg/mL (≈ 0.703 µM)
- MIC Staphylococcus aureus-SMITH (GC 4543) ([4]; strain SMITH GC 4543): 1 µg/mL (≈ 0.703 µM)
- MIC Staphylococcus aureus (ATCC 29213) ([4]; strain ATCC 29213): 1 µg/mL (≈ 0.703 µM)
- MIC Staphylococcus aureus (GC 1131) ([4]; strain GC 1131): 2 µg/mL (≈ 1.41 µM)
- MIC Staphylococcus aureus (GC 4541) ([4]; strain GC 4541): 2 µg/mL (≈ 1.41 µM)
- MIC Staphylococcus aureus (GC 4542) ([4]; strain GC 4542): 1 µg/mL (≈ 0.703 µM)
- MIC Staphylococcus aureus (GC 4544) ([4]; strain GC 4544): 2 µg/mL (≈ 1.41 µM)
- MIC Staphylococcus aureus (GC 4545) ([4]; strain GC 4545): 1 µg/mL (≈ 0.703 µM)
- MIC Enterococcus avium (GC 4558) ([5]; Enterococcus avium (GC 4558)): 4 µg/mL (≈ 2.81 µM)
- MIC Enterococcus faecalis (ATCC 29212) ([5]; Enterococcus faecalis (ATCC 29212)): 4 µg/mL (≈ 2.81 µM)
- MIC Enterococcus faecalis (GC 2242) ([5]; Enterococcus faecalis (GC 2242)): 4 µg/mL (≈ 2.81 µM)
- MIC Enterococcus faecalis (GC 4552) ([5]; Enterococcus faecalis (GC 4552)): 4 µg/mL (≈ 2.81 µM)
- MIC Enterococcus faecalis (GC 4553) ([5]; Enterococcus faecalis (GC 4553)): 4 µg/mL (≈ 2.81 µM)
- MIC Enterococcus faecalis (GC 4554) ([5]; Enterococcus faecalis (GC 4554)): 4 µg/mL (≈ 2.81 µM)
- MIC Enterococcus faecium (GC 2243) ([5]; Enterococcus faecium (GC 2243)): 4 µg/mL (≈ 2.81 µM)
- MIC Enterococcus faecium (GC 4556) ([5]; Enterococcus faecium (GC 4556)): 4 µg/mL (≈ 2.81 µM)
- MIC Enterococcus faecium (GC 4557) ([5]; Enterococcus faecium (GC 4557)): 2 µg/mL (≈ 1.41 µM)
- MIC Enterococcus faecalis (ATCC 29212) ([5]; strain ATCC 29212): 4 µg/mL (≈ 2.81 µM)
- MIC Enterococcus faecalis (GC 2242) ([5]; strain GC 2242): 4 µg/mL (≈ 2.81 µM)
- MIC Enterococcus faecium (GC 2243) ([5]; strain GC 2243): 4 µg/mL (≈ 2.81 µM)
- MIC Enterococcus faecalis (GC 4552) ([5]; strain GC 4552): 4 µg/mL (≈ 2.81 µM)
- MIC Enterococcus faecalis (GC 4553) ([5]; strain GC 4553): 4 µg/mL (≈ 2.81 µM)
- MIC Enterococcus faecalis (GC 4554) ([5]; strain GC 4554): 4 µg/mL (≈ 2.81 µM)
- MIC Enterococcus faecium (GC 4556) ([5]; strain GC 4556): 4 µg/mL (≈ 2.81 µM)
- MIC Enterococcus faecium (GC 4557) ([5]; strain GC 4557): 2 µg/mL (≈ 1.41 µM)
- MIC Enterococcus avium (GC 4558) ([5]; strain GC 4558): 4 µg/mL (≈ 2.81 µM)
- MIC Streptococcus agalactiae (GC 4564) ([6]; Streptococcus agalactiae (GC 4564)): <0.5 µg/mL
- MIC Streptococcus pneumoniae (GC 4565) ([6]; Streptococcus pneumoniae (GC 4565)): <0.5 µg/mL
- MIC Streptococcus pyogenes (ID-3187) ([6]; Streptococcus pyogenes (ID-3187)): <0.5 µg/mL
- MIC Streptococcus agalactiae (GC 4564) ([6]; strain GC 4564): <0.5 µg/mL
- MIC Streptococcus pneumoniae (GC 4565) ([6]; strain GC 4565): <0.5 µg/mL
- MIC Streptococcus pyogenes (ID-3187) ([6]; strain ID-3187): <0.5 µg/mL
